Data set [1] deals with A2780 ovarian carcinoma cells. The data set can be described thus: Antiproliferative activity against A2780 (MTT). It counts as cell-based. To be noted: Homo sapiens, 72 h. The procedure:
The in vitro antiproliferative activity of compounds 38, 42, and 45 against a panel of five human ovarian carcinoma cell lines (SKOV3, IGROV-1, A2780, OVCAR-8, and OVCAR-3) was evaluated by a colorimetric method (Table 3) and compared with paclitaxel. […] For SKOV3, the potency reduction observed for paclitaxel together with a sustained or improved (42 with a 7 nM IC50 value) potency for MDS results in a more favorable profile of the MDS compared to paclitaxel.
MCF7 (human breast carcinoma), SKOV-3 (human ovarian carcinoma), OVCAR-3 (human ovarian carcinoma), OVCAR-8 (human ovarian carcinoma), and HeLa (human cervical carcinoma) cell lines were cultured in Dulbecco’s Modified Eagle’s Medium (DMEM) (Gibco, Thermo Fischer Scientific) containing 10% (v/v) heat-inactivated fetal bovine serum (HIFBS) (Lonza-Cambrex, Karlskoga, Sweden), 2 mM L-glutamine (Lonza-Cambrex, Karlskoga, Sweden), 100 μg/mL streptomycin, and 100 IU/mL penicillin (Lonza-Cambrex) at 37 °C in humidified 95% air and 5% CO2. […]
MCF7, HeLa, and HT-29 cell proliferation, when treated with the corresponding compounds, were determined using the XTT (sodium 3’-[1(phenylaminocarbonyl)-3,4-tetrazolium]-bis(4-methoxy-6-nitro)-benzenesulfonic acid hydrate) cell proliferation kit (Roche Molecular Biochemicals, Mannheim, Germany). […] The absorbance of the formazan product generated was measured at 450 nm using a multi-well plate reader. SKOV-3, OVCAR-3, OVCAR-8, IGROV-1, A-2780 cell proliferation, when treated with the corresponding compound, were determined using MTT (3-(4,5-dimethylthiazol-2-yl)-2,5-diphenyl-2H-tetrazolium bromide) (Sigma-Aldrich, St. Louis, MO, USA). […] Absorbance was measured at 570 nm in a plate reader (Ultra Evolution, Tecan, Männedorf, Suiza). […] After 24 h incubation, to allow cells to attach to the plates, all compounds were added at 1 µM concentration and the effect on the proliferation was evaluated 72 h post-treatment. […]

Data set [2] deals with tubulin (microtubular protein isolated from calf brain). Nature of the data set: Tubulin Polymerization Inhibition (TPI) assay, turbidity. The conditions noted are these: 1.5 mg/mL microtubular protein; for TPI % 10 µM: compound at 10 µM. Format: biochemical. The procedure:
The effect of all the synthesized compounds on the in vitro tubulin polymerization was evaluated at 10 µM. All the compounds that inhibited polymerization more than 30% were also assayed at 20 µM. IC50 values were calculated for those compounds inhibiting tubulin polymerization by at least 50% at 20 µM (Table 1 and Supplemental Figure S2).
Microtubular protein was isolated from calf brain according to the modified Shelanski method by two cycles of temperature-dependent assembly/disassembly and stored at −80 °C. Before each use, protein concentration was determined by the Bradford method taking BSA as standard.
Tubulin polymerization was monitored using a Helios α spectrophotometer by measuring the increase in turbidity at 450 nm, caused by a shift from 4 °C to 37 °C, which allows the in vitro microtubular protein to depolymerize and polymerize, respectively. The assay was carried out in quartz cuvettes containing 1.5 mg/mL microtubular protein and the ligand (except for control cuvette with only DMSO at the same concentration) in a mixture of 0.1 M MES buffer, 1 mM EGTA, 1 mM MgCl2, 1 mM β-ME, and 1.5 mM GTP at pH 6.7 (final volume 500 µL). Cuvettes were preincubated at 20 °C for 30 min, to allow ligand binding to tubulin, and subsequently cooled on ice for 10 min. Then, the experiment starts at 4 °C to establish the initial baseline. The assembly process was initiated by a temperature shift to 37 °C and the turbidity produced by tubulin polymerization can be measured by an absorbance increase. After reaching a stable plateau, the temperature was switched back to 4 °C to return to the initial absorption values (to confirm the reversible nature of the monitored process and to determine whether or not the microtubular tubular protein has stabilized). The difference in amplitude between the stable plateau and the initial baseline of the curves was taken as the degree of tubulin polymerization for each experiment. Comparison with control curves under identical conditions but without ligands yielded TPI as a percentage value. All compounds were tested at 10 µM concentration. Compounds that inhibited tubulin polymerization by at least 30% at 10 µM were tested at 20 µM. IC50 values were calculated for compounds that inhibit tubulin polymerization by more than 50% at 20 µM. Compounds were dissolved in DMSO, and the final solvent concentration never exceeded 4% (v/v), which has been reported not to interfere with the assembly process. All the measurements were carried out in at least two independent experiments using microtubular protein from different preparations.

A short description of data set [3]: Aqueous solubility, saturation shake-flask method, UV absorbance. To be noted: phosphate buffer, pH 7, aqueous buffer, thermodynamic from solid.
Procedure: UV absorbance at three maximum absorbance wavelengths of selected compounds was measured after 48 h shaking and subsequent microfiltration.
The aqueous solubility of the sulfonamides was determined using an approach based on the saturation shake-flask method. Tested compounds (1–2 mg) were stirred in pH 7.0 phosphate buffer (300 µL) for 48 h at room temperature. The resulting suspension was filtered over a 45 µm filter to discard insoluble residues, and the concentration in the supernatant was measured by UV absorbance. To determine the concentration, a scan between 270 and 400 nm was performed in a Helios-α UV-320 Spectrophotometer (Thermo-Spectronic, Thermo Fischer Scientific, Waltham, MA, USA) for each tested compound. Then, three maximum wavelengths of absorbance per compound were selected from the previous scan and calibration curves were performed at these three wavelengths. Solubility results are given as the average of the three measurements.

Values after ≈ are worked out from the molar mass of the structure shown. A value given as a limit tells only on which side of the number the result lay.

By IC50 is commonly meant the concentration that gives 50% inhibition. Low readings indicate higher potency, high ones lower potency. Usually solubility stands for the dissolved amount per volume that the medium holds. Read a high solubility as a readily soluble substance. For `COc1ccc(S(=O)(=O)N(C)c2cc(OC)c(OC)c(OC)c2)cc1N` [Compound 42], it took 0.042 µM to reach half-maximal inhibition in data set [1] (IC50). In data set [2], the IC50 turned out to be 12 µM and the “TPI % 10 µM” value amounted to 41%. Moreover, in data set [3], the solubility at 48 h came out at 108 µg/mL (≈ 282 µM).

Broadly, the melting point is the temperature of the solid-liquid transition. Turning to `COc1ccc(S(=O)(=O)N(CC#N)c2cc(OC)c(OC)c(OC)c2)cc1N` [Compound 44], the melting point fell in the range of 139 to 145 °C. In data set [2], the IC50 was over 20 µM and the “TPI % 10 µM” value is 5%. In data set [3], the solubility at 48 h was determined as 46 µg/mL (≈ 113 µM).

Take `COc1ccc(S(=O)(=O)N(C)c2cc(OC)c(OC)c(OC)c2)cc1` [Compound 2a]: the melting point fell in the range of 123 to 124 °C. For the same compound, in data set [2], the IC50 is over 20 µM and the “TPI % 10 µM” value was 35%. Also, the concentration in solution in data set [3] (solubility at 48 h) came to 27 µg/mL (≈ 73.5 µM).

Regarding `COc1ccc(S(=O)(=O)N(C(C)=O)c2cc(OC)c(OC)c(OC)c2)cc1` [Compound 5], the melting point fell in the range of 190 to 195 °C. Also, in data set [2], the IC50 was over 20 µM and the “TPI % 10 µM” value was 0%. In data set [3], this compound gave a solubility at 48 h of 38 µg/mL (≈ 96.1 µM).

As for `COc1ccc(S(=O)(=O)Nc2cc(OC)c(OC)c(OC)c2)cc1` [Compound 1a], the melting point lay within 115 to 116 °C. For the same compound, in data set [2], the IC50 was over 20 µM and the “TPI % 10 µM” value turned out to be 0%. This compound also came in with a solubility at 48 h in data set [3] of 83 µg/mL (≈ 235 µM).

`CNc1ccc(S(=O)(=O)N(C)c2cc(OC)c(OC)c(OC)c2)cc1` [Compound 38] came in with an IC50 in data set [1] of 0.068 µM. For the same compound, in data set [2], the IC50 turned out to be 10 µM and the “TPI % 10 µM” value stood at 47%. In addition, the concentration in solution in data set [3] (solubility at 48 h) was 16 µg/mL (≈ 43.7 µM).

In turn, `CCN(c1cc(OC)c(OC)c(OC)c1)S(=O)(=O)c1ccc(OC)cc1` [Compound 3] registered a melting point of 140 to 143 °C. Besides, in data set [2], the IC50 is over 20 µM and the “TPI % 10 µM” value is 25%. This compound also yielded a solubility at 48 h in data set [3] of 30 µg/mL (≈ 78.6 µM).

In the case of `CNc1ccc(S(=O)(=O)Nc2cc(OC)c(OC)c(OC)c2)cc1` [Compound 37], the melting point was in the range of 200 to 206 °C. Also, in data set [2], the IC50 was over 20 µM and the “TPI % 10 µM” value is 7%. This compound also yielded a solubility at 48 h in data set [3] of 43 µg/mL (≈ 122 µM).

For `COc1ccc(S(=O)(=O)N(Cc2ccccc2)c2cc(OC)c(OC)c(OC)c2)cc1N` [Compound 45], half-maximal inhibition in data set [1] (IC50) required 0.104 µM. Moreover, in data set [2], the IC50 was 3.7 µM and the “TPI % 10 µM” value is on record as 75%. Also, in data set [3], the solubility at 48 h was determined as 14 µg/mL (≈ 30.5 µM).

These data come from publication PMC7918738, “Microtubule Destabilizing Sulfonamides as an Alternative to Taxane-Based Chemotherapy” (International Journal of Molecular Sciences, 2021).
